Measured values from patent publication US9284303B2, “Benzimidazole cannabinoid agonists bearing a substituted heterocyclic group” (priority 2006, dated 2016).

Experiments:
[1] = biological target: T1, human CB2 (hCB2) receptor (Homo sapiens, UniProt P34972); experiment: Inhibition of forskolin-activated cAMP production upon activation of hCB2 (HTRF), CHO-K1 cells; type: cell-based; details: for ratio CB2 agonism over CB1 agonism: Table C-1, selectivity hCB2 over hCB1; for ratio CB2 over CB1 agonism: Table C-3, comparison of art compounds A to E with compounds of the invention; for EC50: hCB2-CHO-K1 cells, forskolin-activated cAMP, pEC50=-log(EC50), read-out: CB2 pEC50 (converted)
T1 construct: expressed in transfected cells; host or cells: CHO-K1
T1 sequence (P34972 whole entry): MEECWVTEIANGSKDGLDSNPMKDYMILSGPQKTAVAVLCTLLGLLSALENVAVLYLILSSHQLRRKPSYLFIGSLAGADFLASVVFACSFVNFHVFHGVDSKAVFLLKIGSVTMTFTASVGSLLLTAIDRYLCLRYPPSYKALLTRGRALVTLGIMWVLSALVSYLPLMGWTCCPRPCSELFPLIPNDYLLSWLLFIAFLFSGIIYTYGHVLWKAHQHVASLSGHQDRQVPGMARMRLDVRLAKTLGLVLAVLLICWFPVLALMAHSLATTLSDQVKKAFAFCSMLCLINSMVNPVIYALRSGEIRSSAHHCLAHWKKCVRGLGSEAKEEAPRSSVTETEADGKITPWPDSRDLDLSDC

[2] = biological target: T2, human CB1 (hCB1) receptor (Homo sapiens, UniProt P21554); experiment: Inhibition of forskolin-activated cAMP production upon activation of hCB1 (HTRF), CHO-K1 cells; type: cell-based; details: CB1 pEC50, hCB1-CHO-K1 cells, forskolin-activated cAMP, pEC50=-log(EC50)
T2 construct: expressed in transfected cells; host or cells: CHO-K1
T2 sequence (P21554 whole entry): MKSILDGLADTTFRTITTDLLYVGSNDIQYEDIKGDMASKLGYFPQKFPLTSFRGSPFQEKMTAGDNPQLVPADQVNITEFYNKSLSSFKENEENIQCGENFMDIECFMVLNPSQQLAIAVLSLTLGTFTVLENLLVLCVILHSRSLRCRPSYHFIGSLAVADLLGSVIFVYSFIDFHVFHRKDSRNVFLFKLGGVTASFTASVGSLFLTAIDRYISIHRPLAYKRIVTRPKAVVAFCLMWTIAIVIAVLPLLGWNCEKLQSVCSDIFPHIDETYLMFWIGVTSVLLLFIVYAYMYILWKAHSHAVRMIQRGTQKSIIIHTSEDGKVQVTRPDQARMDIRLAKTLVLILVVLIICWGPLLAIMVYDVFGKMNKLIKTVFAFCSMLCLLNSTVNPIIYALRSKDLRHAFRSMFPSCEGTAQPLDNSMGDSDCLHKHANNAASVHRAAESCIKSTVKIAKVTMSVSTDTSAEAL
Procedure, shortened: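 CHO-K1 cells stably expressing hCB1 (20,000/well) were in HBSS stimulation buffer (1 mM IBMX, 10 mM MgCl2, 0.1% BSA, pH 7.4), with 6 μM forskolin in the compound buffer, 30 min at room temperature in the dark. cAMP was read as HTRF 665/620 ratio, normalized to DMSO and CP55490. Outputs were pEC50 and inhibition at 10 μM relative to CP55490.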

Compound | ratio CB2 agonism over CB1 agonism [1] | ratio CB2 over CB1 agonism [1] | EC50 [1] [nM] | EC50 [2] [nM] | melting point [°C] | ratio CB2 agonism over CB1 agonism ([1]; listed as 52) | ratio CB2 agonism over CB1 agonism ([1]; listed as 57) | ratio CB2 agonism over CB1 agonism ([1]; listed as 62)
CC(=O)Nc1cc(S(=O)(=O)c2ccc3c(c2)nc(C(C)(C)C)n3CC2CCOCC2)ccn1 [Co. No. 22] | 1758 | 1758 | 1.12 | 2000 | 262.3 | – | – | –
CC(C)(C)c1nc2cc(S(=O)(=O)c3ccnc(OCC(F)(F)F)c3)ccc2n1CC1CCOCC1 [Co. No. 23] | 398 | 398 | 1.02 | 407 | 166.7 | – | – | –
Cc1cc(S(=O)(=O)c2ccc3c(c2)nc(CC(C)(C)C)n3CC2CCOCC2)ccn1 [Co. No. 24] | 407 | 407 | 2.19 | 891 | 207.1 | – | – | –
CC(C)(C)c1nc2cc(S(=O)(=O)c3ccc(S(C)(=O)=O)nc3)ccc2n1CC1CCCCC1 [Co. No. 27] | >14125 | – | 0.708 | > 10000 | 200 | – | – | –
Cn1cc(S(=O)(=O)c2ccc3c(c2)nc(C(C)(C)C)n3CC2CCOCC2)ccc1=O [Co. No. 28] | >3467 | 3467 | 2.88 | > 10000 | 170 | – | – | –
CC(C)(C)c1nc2cc(S(=O)(=O)c3nccc(C(N)=O)n3)ccc2n1CC1CCOCC1 [Co. No. 29] | 417 | – | 3.16 | 1320 | 220 to 222 | – | – | –
COC(=O)c1ccc(S(=O)(=O)c2ccc3c(c2)nc(C(C)(C)C)n3CC2CCOCC2)nc1 [Co. No. 30] | 3055 | – | 1.7 | 5250 | 195 to 197 | – | – | –
CC(C)(C)c1nc2cc(S(=O)(=O)c3cncc(C#N)c3)ccc2n1CC1CCCCC1 [Co. No. 36] | 108 | – | 0.676 | 72.4 | 215 to 216 | – | – | –
COCCNC(=O)c1ccc(S(=O)(=O)c2ccc3c(c2)nc(C(C)(C)C)n3CC2CCCCC2)nc1 [Co. No. 37] | >10839 | – | 0.933 | > 10000 | 206 to 207 | – | – | –
CC(=O)c1ccc(S(=O)(=O)c2ccc3c(c2)nc(C(C)(C)C)n3CC2CCOCC2)s1 [Co. No. 40] | 193 | – | 1.07 | 209 | 151 | – | – | –
CC(C)(C)c1nc2cc(S(=O)(=O)c3cncc(C#N)c3)ccc2n1CC1CCOCC1 [Co. No. 43] | 1622 | – | 1 | 1620 | 240 | – | – | –
CC(C)(C)c1nc2cc(S(=O)(=O)c3cncc(C(N)=O)c3)ccc2n1CC1CCOCC1 [Co. No. 44] | 64 | – | 2 | 126 | 259 | – | – | –
CC(C)(C)c1nc2cc(S(=O)(=O)c3ccc(C4(C)OCCO4)cn3)ccc2n1CC1CCOCC1 [Co. No. 45] | >3311 | – | 3.02 | > 10000 | 191 | – | – | –
CC(C)(C)c1nc2cc(S(=O)(=O)c3ccc(-c4ncon4)s3)ccc2n1CC1CCOCC1 [Co. No. 48] | 347 | – | 0.575 | 200 | 199 | – | – | –
COC(C)c1ccc(S(=O)(=O)c2ccc3c(c2)nc(C(C)(C)C)n3CC2CCOCC2)nc1 (centres unmarked) [Co. No. 49] | >2138 | – | 4.68 | > 10000 | 140 | – | – | –
CC(=O)c1ccc(S(=O)(=O)c2ccc3c(c2)nc(C(C)(C)C)n3CC2CCOCC2)cn1 [Co. No. 50] | 6457 | – | 0.692 | 4470 | 162 | – | – | –

Compound | ratio CB2 agonism over CB1 agonism [1] | ratio CB2 over CB1 agonism [1] | EC50 [1] [nM] | EC50 [2] [nM] | melting point [°C] | ratio CB2 agonism over CB1 agonism ([1]; listed as 52) | ratio CB2 agonism over CB1 agonism ([1]; listed as 57) | ratio CB2 agonism over CB1 agonism ([1]; listed as 62)
CC(C)(C)c1nc2cc(S(=O)(=O)c3ccc(C#N)nc3)ccc2n1CC1CCOCC1 [Co. No. 51] | 73 | – | 1.23 | 89.1 | 228 | – | – | –
COc1ccc(S(=O)(=O)c2ccc3c(c2)nc(C(C)(C)C)n3CC2CCOCC2)cn1 [Co. No. 52] | – | – | 0.692 | 229 | 198 | 331 | – | –
CC(C)(C)c1nc2cc(S(=O)(=O)c3ccc(C(C)(C)O)s3)ccc2n1CC1CCOCC1 [Co. No. 53] | 607 | – | 3.72 | 2240 | 258 | – | – | –
CC(C)(C)c1nc2cc(S(=O)(=O)c3coc(C4OCCO4)c3)ccc2n1CC1CCOCC1 [Co. No. 55] | 363 | – | 2.29 | 832 | 141 | – | – | –
CC(C)(C)c1nc2cc(S(=O)(=O)c3ccc(S(C)(=O)=O)nc3)ccc2n1CC1CCOCC1 [Co. No. 56] | >3802 | – | 2.63 | > 10000 | 150 to 160 | – | – | –
CC(C)(C)c1nc2cc(S(=O)(=O)c3ccc(S(C)(=O)=O)s3)ccc2n1CC1CCOCC1 [Co. No. 57] | – | – | 1.1 | 1450 | 216 | – | 1328 | –
CCNS(=O)(=O)c1ccc(S(=O)(=O)c2ccc3c(c2)nc(C(C)(C)C)n3CC2CCOCC2)s1 [Co. No. 59] | 2018 | – | 1.12 | 2290 | 158 | – | – | –
CC(C)(C)c1nc2cc(S(=O)(=O)c3ccc(C#N)o3)ccc2n1CC1CCOCC1 [Co. No. 60] | 638 | – | 1.05 | 661 | 145.5 to 145.7 | – | – | –
CC(C)(C)c1nc2cc(S(=O)(=O)c3sc(S(C)(=O)=O)cc3Br)ccc2n1CC1CCOCC1 [Co. No. 62] | – | – | 0.589 | 1950 | 200 | – | – | 3299
CC(C)(C)c1nc2cc(S(=O)(=O)c3sc(S(=O)(=O)N4CCOCC4)cc3Br)ccc2n1CC1CCOCC1 [Co. No. 65] | >3388 | – | 2.95 | > 10000 | 230 | – | – | –
CC(C)(C)c1nc2cc(S(=O)(=O)c3ccc(S(=O)(=O)N4CCOCC4)cn3)ccc2n1CC1CCOCC1 [Co. No. 66] | >676 | – | 14.8 | > 10000 | 224 | – | – | –
CC(C)(C)c1nc2cc(S(=O)(=O)c3ccc(S(C)(=O)=O)cn3)ccc2n1CC1CCOCC1 [Co. No. 67] | >2344 | – | 4.27 | > 10000 | 183 | – | – | –
Cc1oc(S(=O)(=O)c2ccc3c(c2)nc(C(C)(C)C)n3CC2CCOCC2)cc1S(C)(=O)=O [Co. No. 68] | 116 | – | 3.09 | 363 | 204 to 205 | – | – | –
Cn1ccc(S(=O)(=O)c2ccc3c(c2)nc(C(C)(C)C)n3CC2CCOCC2)cc1=O [Co. No. 69] | 398 | – | 1.74 | 692 | 216 | – | – | –
CC(C)(C)c1nc2cc(S(=O)(=O)c3cc(Cl)nc(Cl)c3)ccc2n1CC1CCOCC1 [Co. No. 71] | >13490 | – | 0.741 | > 10000 | 198 | – | – | –
